Results on two molecules are retold here after patent publication US20240180881A1, “METHODS FOR DECREASING RESISTANCE TO CHEMOTHERAPY” (National Institute of Immunology, priority 2022, published 2024).

One assay deals with HCT116 WT cells. As to the kind of experiment: MTT assay, chemotherapeutic drug gradient with or without disruptor. It is filed as cell-based. As to conditions: for EC50: MTT, 72 hours. The protocol: (§1) The three resistant lines and their wildtype counterpart HCT116 were exposed to a gradient of CPT, CDDP or 1-OHP.
(§2) Concentrations of CPT used: 0.140 nM, 20 nM, 50 nM, 1000 nM. Concentration of 1-OHP: 0.14 μM, 2 μM, 4 μM, 6 μM, 8 μM. Concentrations of CDDP used: 0.140 μM, 2 μM, 5 μM, 10 μM. The percentage of viable cells were determined by MTT assays (FIG. 12A-12C). The data in FIG. 12A and FIG. 12C is from three independent experiments and the data in FIG. 12B is from nine independent experiments. […] The levels of MRP2, MRP3, MRP5, MXR were quantitated from three independent experiments. […] Specifically, HCT116 IC60 CPTR cells were transfected with the HR substrate for 72 hours and the levels of HR was determined (FIG. 6A). The data is from three independent experiments. […] The number of soft agar colonies in each condition were counted. The data is from three independent experiments.
To generate camptothecin and cisplatin resistant cells (named as HCT116 IC60 CPT^R, HCT116 IC60 CDDP^R respectively), HCT116 wild type were seeded in a 10 cm dish to a confluency of 80%. The IC20 concentrations of cisplatin (3.38 μM) and camptothecin (12.6 nM) was added for 2 hours and 6 hours, respectively. Post treatment, the cells were washed twice with 1×PBS and fresh media was added. After every 48 hours, the media was changed and IC20 concentration of the drugs were added only if the confluency of cells was at least 80%. […] Resistant index was calculated using the following formula: Resistant index=IC60 of the resistant cells/IC60 of the parental cells.
Cells were seeded in a 96-well plate overnight. Next day, the culturing media was replaced with Optimem media, followed by incubation with BLM_CPP or SCM_CPP for 1 hr. The final concentrations of the peptides were 450 nM for cisplatin (CDDP) and 180 nM (for all other drugs). […] Post treatment, the cells were washed with 1×PBS and fresh media was added. After 72 hours, MTT assay was carried out to determine the percentage cell viability of the cells with respect to the untreated cells.

A further assay has as its system HCT116 IC60 CDDPR cells. In words: MTT assay, CDDP gradient with or without disruptor. It is filed as cell-based. As to conditions: CDDP gradient alone, 72 hours, read-out: EC50 (μM), HCT116 WT CDDP^R. On the procedure: as §1, §2
(§3) To generate camptothecin and cisplatin resistant cells (named as HCT116 IC60 CPT^R, HCT116 IC60 CDDP^R respectively), HCT116 wild type were seeded in a 10 cm dish to a confluency of 80%. The IC20 concentrations of cisplatin (3.38 μM) and camptothecin (12.6 nM) was added for 2 hours and 6 hours, respectively. […] Resistant index was calculated using the following formula: Resistant index=IC60 of the resistant cells/IC60 of the parental cells. […]

The subject of a further assay is HCT116 IC60 1-OHPR cells. The note with it: read-out: EC50 (μM), HCT116 1-OHP^R + 1-OHP; 1-OHP gradient alone, MTT, 72 hours. On the procedure:
as §1, §2, §3

Setting [1] is: HCT116, used to generate resistant cells.

Where two headings read alike, the source gives them in different places.

In the case of `[NH2][Pt]([NH2])([Cl])[Cl]` [CDDP, cisplatin], in the assay with HCT116 WT cells (CDDP gradient alone, read-out: EC50 (μM), HCT116 WT), the EC50 (as a rule, the concentration giving half of the maximal effect) was determined as 3.78 µM. In addition, in the assay on HCT116 WT cells (setting [1]), the IC40 concentration stood at 15.5 µM and the IC60 concentration amounted to 35.09 µM. The IC20 in the assay on HCT116 WT cells (HCT116 wild type, used to generate resistant cells, read-out: IC20 concentration) is 3.38 µM. Also, the EC50 in the assay on HCT116 IC60 CDDPR cells was determined as 21.7 µM.

With `N[C@@H]1CCCC[C@H]1N.O=C([O-])C(=O)[O-].[Pt+2]` [1-OHP, oxaliplatin], the half-maximal effective concentration (EC50) with HCT116 WT cells (1-OHP gradient alone, read-out: EC50 (μM), HCT116 WT + 1-OHP) came out at 4.77 µM; in the assay on HCT116 IC60 1-OHPR cells it was 14.1 µM.
